Assays:
peritoneal cavity = details: infused into the peritoneal cavity and other body cavities; per Ser. No. 08/133,465 and U.S. Pat. No. 5,252,343; cited from earlier work
[1] = test system: lactobacilli, streptococci, coliforms, Klebsiella species, Enterobacter species, Bacteroides species, clostridia and eubacteria; test: Broad-spectrum antimicrobial activity; type: cell-based; details: aerobic and anaerobic
Description: In one embodiment, the present invention is directed to the use of effective amounts of chlorine dioxide as a peritoneal cavity irrigant. The enteric organisms which enter the peritoneal cavity through contamination by gastrointestinal contact, whether by physical trauma or during surgery, are all susceptible to the cidal effects of chlorine dioxide, which is a broad-spectrum antimicrobial. […] However, as mentioned in the Introduction, addition of antibiotics to the irrigating solution has not provided any additional benefit (Hau and Nishikawa, cited above), and it is presumed that the peritoneal irrigation derives from its mechanical effect. The ineffectivenss of local antibiotic solutions has been surprising to researchers, since the antibiotics that have been used were capable of in vitro inhibition of the bacterial species present in the peritoneal cavity. It may be that the lack of effect was attributable to the brevity of contact of the antibiotic with the organisms, since usual flush times approximate five minutes or less in duration, which would be too short for significant cidal action to occur.

[2] = test system: polymorphonuclear leukocytes; test: Chemotaxis, cell integrity (lactate dehydrogenase) and morphology of isolated polymorphonuclear leukocytes; type: cell-based; details: in vitro, ClO2 solution 3 to 300 ppm
Description: To test whether methods of the invention can control the inflammatory response, isolated polymorphonuclear leukocytes, which are among the first cells to be found at a wound or a site of potential infection, are studied with respect to their response to chlorine dioxide solutions and compared with a control containing ibuprofen, a known non-steroid anti-inflammatorycompound. The choice of in vitro assay is chemotaxis.
Isolated polymorphonuclear leukocytes are studied with respect to their response to a ClO2 solution varying in concentration from 3 to 300 ppm and an ibuprofen control. Cellular response and integrity (chemotaxis)is assayed in vitro after incubating with both compounds by measuring lactate dehydrogenase activity and/or release concurrently with observing morphology using scanning electron microscopy and/or transmission electron microscopy.
The results are graphically illustrated in FIGS. 1 to 3. The x-axis in the figures show dilutions of a 0.5 mg/ml ibuprofen solution, and chlorine dioxide solutions prepared by combining lactic acid with sodium chlorite and diluting to yield chlorine dioxide concentrations as follows: […], 1:10 is 60 ppm ClO2, 1:20 is 30 ppm ClO2, 1:50 is 12 ppm ClO2, 1:100 is 6 ppm ClO2, 1:150 is 4 ppm ClO2, and 1:200 is 3 ppm ClO2.
A negative control is denoted by .smallcircle.. […]

mammalian tissue = test: Tolerance by mammalian tissue (eye irrigant, udder infusion, uterine douche); type: in vivo, rabbits, cow, mares; details: 50 ppm
Description: The materials in the table which are as effective as the 50 ppm ClO2 solution are ones that would be considered to be too irritating and/or corrosive for use as an irrigant in a peritoneal cavity.

[3] = Free radical signal by electron spin resonance (ESR); details: One hundred-fold dilutions, within one minute after mixing
Procedure: (§1) ClO2 (75 ppm) is generated by mixing 0.25% chlorite and 1.4% lactic acid. One hundred-fold dilutions are tested within one minute after mixing using electron paramagnetic spectroscopy (ESR) and a LKB luminometer.
For the ESR assay, the chlorine dioxide solution is frozen in liquid nitrogen to -167° C. and electron spin resonance analyzed using a Varian E3 instrument.

[4] = Free radical signal by luminometer (modified luminol assay); details: One hundred-fold dilutions, within one minute after mixing
Procedure: as §1
The luminometer assay utilizes a modified luminol assay for radical detection. Luminol (LH2) reacts with free radicals (R·) as follows: […]
LOO^- →L2 + AP* (aminophthalate dianion, active state)
The pH optimum for the reaction is 10 to 12. The assay is standardized with an enzymatic system in which the generation of free radicals could be quantified by measuring generation of ·O2^-, obtained with the following reaction, […]
hypoxanthine+xanthine oxidase→urate+·O2^- by the reduction of ferricytochrome C.

In the case of `[O][Cl+][O-]` [ClO2, chlorine dioxide], the “inflammatory response on infusion” value (peritoneal cavity) is listed as “without evoking the inflammatory response”, the “demonstrated activity against organisms” value [1] is listed as “demonstrated activity against all relevant organisms, both aerobic and anaerobic” and the “effect on chemotaxis / quality and morphology of polymorphonuclear leukocytes” value [2] is listed as “control chemotaxis by affecting the quality and morphology of the associated polymorphonuclear leukocytes”. The “effect on chemotaxis / quality and morphology of polymorphonuclear leukocytes” value ([2]; listed as ClO2 solution) was “affected both the quality and morphology of polymorphonuclear leukocytes”, the “tolerance by mammalian tissue” value (mammalian tissue) was “well tolerated by mammalian tissue” and the free radical signal [3] was “A strong free radical signal is generated”. The free radical signal [4] was “A strong free radical signal is generated”.
